The values below come from patent publication US7179779B1, “Cationic bleach activator with enhanced hydrolytic stability” (North Carolina State University, priority 2006, dated 2007).

Entries after “also recorded” stand apart in the source; their conditions may differ. Where a name gives a salt, the structure may show the parent alone.

The nature of data set [1]: Hydrolysis kinetics of bleach activator storage solutions by HPLC analysis. The class given is physicochemical. As to conditions: 10% solution, pH 5, room temperature. An excerpt: Because the concentration of hydroxide ion, OH^−, in the cationic bleach activator solution is almost constant by using a buffer (pH 5), the decrease in the concentration of bleach activator can be expressed as equation 1:
[formula] wherein, [C] is the concentration of bleach activator at time t and k is the pseudo first order rate constant of hydrolysis. See M. B. Smith and J. March, March's Advanced Organic Chemistry: Reactions, Mechanisms, and Structure, 5th ed. (New York: Wiley, 2001) 291.
Equation 2 then can be derived from equation 1:
[formula] wherein, C0 and Ct are the concentration of bleach activator at initial time and time t, respectively.
(§1) Aqueous solutions (10% w/w) of cationic bleach activators 3a–3e were prepared using pH 5 buffer solution. A buffer solution of pH 5 was made using sodium acetate (0.1 M)/acetic acid. Each solution was stored in an amber glass bottle at room temperature.
The HPLC (Waters Breeze HPLC system, Waters Corporation, Milford, Mass., United States of America) with a C18 reverse-phase column (Waters Symmetry C18, 5 μm) was used to analyze the hydrolysis behaviors of the cationic bleach activators 3a–3e during storage. On the selected day, a 0.5 mL aliquot was withdrawn from each storage solution of 3a–3e and diluted with 24.5 mL of water. A 10-μL sample of the solution was injected into the HPLC. For the mobile phase, the gradient program using water with 0.005M heptanesulphonic acid as a solvent A and acetonitrile as a solvent B was used (Table 2). The flow rate was 1 mL/min.

Data set [2] can be described thus: Bleaching of cotton fabric with bleach activators, CIE whiteness index measurement. As to conditions: stored 10% w/w aqueous solutions, pH 5, bleaching at 70° C. for 50 min. The protocol:
On the same day of the AvO measurement, bleaching was carried out with storage solutions of the bleach activators 3a–3e. Two grams of each solution was added to the bleaching solution, which comprised a wetting agent (1 g/L), stabilizer (1 g/L), NaOH (50% w/w, 3 g/L) and H2O2 (50% w/w, 3 g/L). Cotton fabric (10 g) was bleached in a laboratory IR dyeing machine (Ahiba Nuance, Datacolor International, Lawrenceville, N.J., United States of America) at a liquor ratio of 10:1. The temperature was raised to 70° C. at the rate of 4° C./min. After 50 min of bleaching, the bleaching bath was cooled to room temperature. The bleached fabric was rinsed thoroughly in tap water and air-dried.
The CIE Whiteness Index (WI) value was obtained for the bleached fabric using AATCC Test Method 110–1995. See AATCC Technical Manual, vol 75 (Research Triangle Park: American Association of Textile Chemists and colorists, 2000), the disclosure of which is incorporated herein by reference in its entirety.
The whiteness was measured on a UV calibrated Datacolor Spectraflash SF 600X (Datacolor Corporation, Lawrenceville, N.J., United States of America), under illuminant D65 using the 10° standard observer with specular and UV component included. Each sample was folded twice to give an opaque sample with four plies and whiteness was measured four times at different surfaces. The average value of CIE WI was recorded.

Data set [3] can be described thus: Available oxygen (AvO) of bleach activator storage solutions by modified iodometric titration. The class given is physicochemical. As to conditions: 10% w/w aqueous solution, pH 5 buffer, room temperature storage.
Description: Active or available oxygen (AvO) is a useful parameter for assessing the oxidizing power of hydrogen peroxide or peracids from bleach activators. See American Standard Test Method D 2180–89 (West Conshohocken: ASTM International, 2003); and J. K. Grime, A. D. Clauss and K. A. Leslie, Tenside Surf. Det., 29 (1992) 23. A modified iodometric titration method was used to measure the AvO of the presently disclosed bleach activators. See J. J. Lee, S. Lim, P. Hauser and D. Hinks, Color. Technol., 121 (2005) 37.
as §1
AvO of a bleach activator was measured using a previously described procedure. See J. J. Lee, S. Lim, P. Hauser and D. Hinks, Color. Technol., 121 (2005) 37, the disclosure of which is incorporated herein by reference in its entirety.
On the selected day, the pH value of each storage solution was recorded and a 2 mL aliquot was withdrawn and added to a mixture of deionized water, stabilizer (1 g/L), Na2CO3 (14 g/L) and H2O2 (50% w/w, 0.5 g/L) to make a total volume of 200 mL. Crushed ice (180 g) was added to the sample solution while stirring. Acetic acid (50 mL) and potassium iodide solution (10 mL, 10% w/v) were then added separately. Using 0.025N sodium thiosulfate solution, the sample solution was titrated until it turned colorless. AvO (ppm) of a bleach activator was calculated using Equation 3.
[formula] wherein, Vtotal and VH2O2 are the volume (mL) of Na2S2O3 solution required for the titration of sample and blank respectively.

The conditions of data set [4]: compared with conventional peroxide bleaching; cited from earlier work.

In turn, `CC[N+](CC)(CC)Cc1ccc(C(=O)N2CCCC2=O)cc1` (as salt: chloride) [Compound 3a, N-[4-(triethylammoniomethyl)benzoyl] butyrolactam chloride] registered a melting point of 228 to 230 °C.
The same measure, in the same setting: under `CC[N+](CC)(CC)Cc1ccc(C(=O)N2CCCCCCC2=O)cc1` (as salt: chloride) [Compound 3d, N-[4-(triethylammoniomethyl)benzoyl] heptalactam chloride] stands 194 to 196 °C; under `CC[N+](CC)(CC)Cc1ccc(C(=O)N2CCCCCCCC2=O)cc1` (as salt: chloride) [Compound 3e, N-[4-(triethylammoniomethyl)benzoyl] octalactam chloride], 183 to 185 °C.
On to `CC[N+](CC)(CC)Cc1ccc(C(=O)N2CCCC2=O)cc1` [Compound 3a, N-[4-(triethylammoniomethyl)benzoyl] butyrolactam chloride], for which, in data set [1], the “hydrolytic stability under typical storage conditions” value (“hydrolytic stability” for short) is given as “more stable than TBCC” and the “pseudo first order rate constant of hydrolysis (ranking)” value (shortened to “pseudo first order rate constant”) is “smaller than that of TBCC”.
Turning to `CC[N+](CC)(CC)Cc1ccc(C(=O)N2CCCCC2=O)cc1.[Cl-]` [Compound 3b, N-[4-(triethylammoniomethyl)benzoyl] valerolactam chloride], the melting point lay within 187 to 189 °C. Moreover, the “change of CIE-WI of cotton fabric bleached with stored activator solutions over storage time” value in data set [2] was “decreased fastest”. Moreover, the “rate of decrease of AvO over storage time” value (“rate of decrease of AvO” for short) in data set [3] is recorded as “decreased the fastest”. Further, in data set [1], the “pseudo first order rate constant” value is on record as “greatest” and the “rate constant of hydrolysis, times greater than that of 3c or TBCC” value is “two times greater”.
Regarding `CC[N+](CC)(CC)Cc1ccc(C(=O)N2CCCCCC2=O)cc1.[Cl-]` [Compound 3c, N-[4-(triethylammoniomethyl)benzoyl] caprolactam chloride], the melting point lay in the range of 212 to 214 °C. The “rate of decrease of AvO” value in data set [3] is given as “second to that of 3b”. Also, in data set [4], the bleaching performance result is “satisfactory bleaching performance in a shorter time and at lower temperatures than conventional peroxide bleaching”.
Turning to `CC[N+](CC)(CC)Cc1ccc(C(=O)N2CCCCCCC2=O)cc1` [Compound 3d, N-[4-(triethylammoniomethyl)benzoyl] heptalactam chloride], in data set [1], the “hydrolytic stability” value was “more stable than TBCC” and the “pseudo first order rate constant” value is given as “smaller than that of TBCC”.
With `CC[N+](CC)(CC)Cc1ccc(C(=O)N2CCCCCCCC2=O)cc1` [Compound 3e, N-[4-(triethylammoniomethyl)benzoyl] octalactam chloride], the “change of CIE-WI of cotton fabric bleached with stored activator solutions over storage time” value in data set [2] is listed as “decreased slowest”. In addition, the “rate of decrease of AvO” value in data set [3] was “decreased the slowest”. For the same compound, in data set [1], the “hydrolytic stability” value is listed as “more stable than TBCC; also recorded: the most stable compound”; the “pseudo first order rate constant” value was “smaller than that of TBCC”; the “rate constant of hydrolysis, times smaller than that of 3a” value is reported as “about 3 times”; the “rate constant of hydrolysis, times smaller than that of TBCC” value is given as approximately 7 times.
